Here are results for 15 compounds from US6936631B2, “Bicyclic imidazo-5-yl-amine derivatives” (Gruenenthal GmbH, priority 1999, dated 2005).

This assay deals with α2-subtype of the human α-adrenergic receptor. Put plainly: SPA assay for affinity for the α2-subtype of the human α-adrenergic receptor (high throughput screening). It is filed as binding. As to conditions: at a concentration of 10 μM. The protocol:
The compounds according to the invention are ligands of the pain-relevant α2-subtype of the human α-adrenergic receptor. The affinity for the α2-subtype of the human α-adrenergic receptor was determined by means of a conventional SPA assay for high throughput screening, such as is described in John P. Devlin, High Throughput Screening, Marcel Dekker Inc. 1997, page 307 to 316. This literature is incorporated herein by reference and thus forms part of the disclosure. The following affinities were determined at a concentration of 10 μM: […]

For `Cc1ccc(C)c(-c2nc3nc[nH]n3c2NC(C)(C)CC(C)(C)C)c1` [Example 54, [5-(2,5-Dimethyl-phenyl)-imidazo [1,2-b][1,2,4]triazol-6-yl]-(1,1,3,3-tetramethyl-butyl) -amine], the “alpha2 affinity, 10 μM” value came to 56%.
Turning to `Cc1ccc(-c2nc3sccn3c2NC2CCCCC2)c(C)c1` [Example 50, Cyclohexyl-[6-(2,4-dimethyl-phenyl)-imidazo[2,1-b]thiazol-5-yl]-amine], the “alpha2 affinity, 10 μM” value worked out at 36%.
In the case of `c1ccc2c(-c3nc4nc[nH]n4c3NC3CCCCC3)cccc2c1` [Example 46, Cyclohexyl-(5-naphthalen-1-yl-imidazo[1,2-b][1,2,4]triazol-6-yl)-amine], the “alpha2 affinity, 10 μM” value is on record as 46%.
For `Cc1ccc(-c2nc3nc[nH]n3c2NC(C)(C)CC(C)(C)C)c(C)c1` [Example 53, [5-(2,4-dimethyl-phenyl)-imidazo[1,2-b][1,2,4]triazol-6-yl]-(1,1,3,3-tetramethyl-butyl) -amine] the value was 43%; for `CC(C)(C)Nc1c(-c2ccccc2F)nc2nc[nH]n12` [Example 43, tert-Butyl-[5-(2-fluorophenyl)-imidazo[1,2-b][1,2,4]triazol-6-yl]-amine], 34%; for `CC(C)(C)CC(C)(C)Nc1c(-c2ccccc2Br)nc2nc[nH]n12` [Example 47, [5-(2-Bromophenyl)-imidazo[1,2-b][1,2,4]triazol-6-yl]-(1,1,3,3-tetramethyl-butyl)-amine], 42%.
For `CC(=O)N(c1c(-c2ccc(C)cc2)nc2sccn12)C(C)(C)C` [Example 52, N-tert-Butyl-N-(6-p-tolyl-imidazo[2,1-b]thiazol-5-yl)-acetamide] the value was 51%; for `Cc1ccc(C)c(-c2nc3nc[nH]n3c2NC(C)(C)C)c1` [Example 49, tert-Butyl-[5-(2,5-dimethyl-phenyl)-imidazo[1,2-b][1,2,4]triazol-6-yl]-amine], 38%.
With `CCCCNc1c(-c2ccc(C(C)(C)C)cc2)nc2sc(C)cn12` [Example 42, Butyl-[6-(4-tert-butyl-phenyl)-2-methyl-imidazo[2,1-b]thiazol-5-yl]-amine] the figure was 36%; with `Cc1ccc(C)c(-c2nc3sccn3c2NC2CCCCC2)c1` [Example 51, Cyclohexyl-[6-(2,5-dimethylphenyl)-imidazo[2,1-b]thiazol-5-yl]-amine], 39%; with `CCCCN(C(C)=O)c1c(-c2c(F)cccc2Cl)nc2nc[nH]n12` [Example 55, N-Butyl-N-[5-(2-chloro-6-fluorophenyl)-imidazo[1,2-b][1,2,4]triazol-6-yl]-acetamide], 39%.
`CC(C)(C)Nc1c(-c2ccccc2F)nc2sccn12` [Example 44, tert-Butyl-[6-(2-fluorophenyl)-imidazo[2,1-b]thiazol-5-yl]-amine]: the “alpha2 affinity, 10 μM” value came to 38%.
`CCCCN(C(C)=O)c1c(-c2ccc(C(C)(C)C)cc2)nc2sc(C)cn12` [Example 56, N-Butyl-N-[6-(4-tert-butyl-phenyl)-2-methyl-imidazo[2,1-b]thiazol-5-yl]-acetamide]: the “alpha2 affinity, 10 μM” value is reported as 46%.
In the case of `CC(=O)Nc1ccc(-c2nc3nc[nH]n3c2NC2CCCCC2)cc1` [Example 48, N-[4-(6-Cyclohexylamino-imidazo[1,2-b][1,2,4]triazol-5-yl) -phenyl]-acetamide], the “alpha2 affinity, 10 μM” value amounted to 36%.
Turning to `CC(C)(C)Nc1c(-c2cccc3ccccc23)nc2nc[nH]n12` [Example 45, tert-Butyl-(5-naphthalen-1-yl-imidazo[1,2-b][1,2,4]triazol-6-yl)-amine], the “alpha2 affinity, 10 μM” value was 41%.
